Data from publication PMC5797143, “Epigenetic modulation of inflammation and synaptic plasticity promotes resilience against stress in mice” (Nature Communications, 2018).

Assays:
[1] = target: T1, 5-hT1e (serotonin receptor) (Homo sapiens, UniProt P28566); assay: Radioligand binding assay; conditions: 10 µM; HEK membrane fractions; quadruplicate
T1 construct: purchased NIMH Psychoactive Drug Screening Program (PDSP)
Protocol: (§1) Radioligand binding assays were performed as previously described. Briefly, crude membrane fractions prepared from a stable HEK cell line expressing recombinant receptors were mixed with a radiolabeled specific ligand and 10 µM of competitor compound (DHCA, Mal-gluc, or non-specific ligand). The percentage of radioligand binding was subsequently measured.

[2] = target: T2, SERT (serotonin transporter) (Homo sapiens, UniProt P31645); assay: Radioligand binding assay; conditions: 10 µM; HEK membrane fractions; quadruplicate
T2 construct: purchased NIMH Psychoactive Drug Screening Program (PDSP)
T2 sequence (P31645 whole entry): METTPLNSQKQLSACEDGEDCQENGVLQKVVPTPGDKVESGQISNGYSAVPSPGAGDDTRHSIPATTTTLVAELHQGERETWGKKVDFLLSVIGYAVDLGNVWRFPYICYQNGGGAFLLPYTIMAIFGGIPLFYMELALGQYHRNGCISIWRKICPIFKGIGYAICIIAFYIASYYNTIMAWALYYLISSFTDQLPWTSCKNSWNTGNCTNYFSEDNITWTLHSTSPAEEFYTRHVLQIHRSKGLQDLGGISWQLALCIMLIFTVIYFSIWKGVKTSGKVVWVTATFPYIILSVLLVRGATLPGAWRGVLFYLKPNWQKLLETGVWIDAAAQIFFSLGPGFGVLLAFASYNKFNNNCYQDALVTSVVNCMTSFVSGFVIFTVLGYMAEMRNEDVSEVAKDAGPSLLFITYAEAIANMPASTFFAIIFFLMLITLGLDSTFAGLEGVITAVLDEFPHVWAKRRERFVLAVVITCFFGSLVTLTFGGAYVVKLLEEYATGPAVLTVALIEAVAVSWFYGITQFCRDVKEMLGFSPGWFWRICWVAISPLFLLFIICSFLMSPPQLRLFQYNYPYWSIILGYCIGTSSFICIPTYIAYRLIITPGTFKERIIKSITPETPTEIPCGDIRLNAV
Protocol: as §1

[3] = target: T3, 5-HT7 (serotonin receptor) (Homo sapiens, UniProt P34969); assay: Radioligand binding assay; conditions: 10 µM; HEK membrane fractions; quadruplicate
T3 construct: purchased NIMH Psychoactive Drug Screening Program (PDSP)
T3 sequence (P34969 whole entry): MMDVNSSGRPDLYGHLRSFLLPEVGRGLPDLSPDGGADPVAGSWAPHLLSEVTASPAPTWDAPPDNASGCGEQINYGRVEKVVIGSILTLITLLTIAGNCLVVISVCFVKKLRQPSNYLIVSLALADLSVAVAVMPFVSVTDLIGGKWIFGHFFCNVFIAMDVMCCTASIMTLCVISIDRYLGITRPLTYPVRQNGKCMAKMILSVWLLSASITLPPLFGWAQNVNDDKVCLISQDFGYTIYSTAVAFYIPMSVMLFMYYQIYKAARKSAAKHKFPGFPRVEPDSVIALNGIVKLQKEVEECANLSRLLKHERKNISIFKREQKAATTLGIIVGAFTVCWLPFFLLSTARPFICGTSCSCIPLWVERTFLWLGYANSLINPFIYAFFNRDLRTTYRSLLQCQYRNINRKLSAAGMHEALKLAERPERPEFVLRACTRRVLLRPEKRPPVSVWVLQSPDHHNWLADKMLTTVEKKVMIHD
Protocol: as §1

[4] = target: T4, M1 (muscarinic receptor) (Homo sapiens, UniProt P11229); assay: Radioligand binding assay; conditions: 10 µM; HEK membrane fractions; quadruplicate
T4 construct: purchased NIMH Psychoactive Drug Screening Program (PDSP)
Protocol: as §1

[5] = target: T5, Alpha2C (alpha adrenergic receptor) (Homo sapiens, UniProt P18825); assay: Radioligand binding assay; conditions: 10 µM; HEK membrane fractions; quadruplicate
T5 construct: purchased NIMH Psychoactive Drug Screening Program (PDSP)
Protocol: as §1

[6] = target: T6, D2 (dopamine receptor) (Homo sapiens, UniProt P14416); assay: Radioligand binding assay; conditions: 10 µM; HEK membrane fractions; quadruplicate
T6 construct: purchased NIMH Psychoactive Drug Screening Program (PDSP)
Protocol: as §1

[7] = target: T7, M5 (muscarinic receptor) (Homo sapiens, UniProt P08912); assay: Radioligand binding assay; conditions: 10 µM; HEK membrane fractions; quadruplicate
T7 construct: purchased NIMH Psychoactive Drug Screening Program (PDSP)
Protocol: as §1

[8] = target: T8, Beta1 (beta adrenergic receptor) (Homo sapiens, UniProt P08588); assay: Radioligand binding assay; conditions: 10 µM; HEK membrane fractions; quadruplicate
T8 construct: purchased NIMH Psychoactive Drug Screening Program (PDSP)
Protocol: as §1

[9] = target: T9, 5-HT1D (serotonin receptor) (Homo sapiens, UniProt P28221); assay: Radioligand binding assay; conditions: for Binding activity, 5-HT1D (percentage): 10 µM, HEK membrane fractions, quadruplicate
T9 construct: expressed in transfected cells; crude membrane fractions
T9 sequence (P28221 whole entry, species assumed): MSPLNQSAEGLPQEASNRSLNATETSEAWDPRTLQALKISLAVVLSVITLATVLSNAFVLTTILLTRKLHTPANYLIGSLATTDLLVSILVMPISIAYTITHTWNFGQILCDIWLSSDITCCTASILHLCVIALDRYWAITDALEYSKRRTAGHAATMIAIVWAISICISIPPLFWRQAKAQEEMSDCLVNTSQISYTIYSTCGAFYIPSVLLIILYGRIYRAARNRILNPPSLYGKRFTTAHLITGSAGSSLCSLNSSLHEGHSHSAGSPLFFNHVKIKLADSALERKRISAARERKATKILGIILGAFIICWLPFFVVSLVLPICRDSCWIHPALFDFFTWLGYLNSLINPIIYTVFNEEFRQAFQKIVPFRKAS
Protocol: as §1

[10] = target: T10, D1 (dopamine receptor) (Homo sapiens, UniProt P21728); assay: Radioligand binding assay; conditions: 10 µM; HEK membrane fractions; quadruplicate
T10 construct: purchased NIMH Psychoactive Drug Screening Program (PDSP)
Protocol: as §1

[11] = target: T11, D4 (dopamine receptor) (Homo sapiens, UniProt P21917); assay: Radioligand binding assay; conditions: 10 µM; HEK membrane fractions; quadruplicate
T11 construct: purchased NIMH Psychoactive Drug Screening Program (PDSP)
T11 sequence (P21917 whole entry): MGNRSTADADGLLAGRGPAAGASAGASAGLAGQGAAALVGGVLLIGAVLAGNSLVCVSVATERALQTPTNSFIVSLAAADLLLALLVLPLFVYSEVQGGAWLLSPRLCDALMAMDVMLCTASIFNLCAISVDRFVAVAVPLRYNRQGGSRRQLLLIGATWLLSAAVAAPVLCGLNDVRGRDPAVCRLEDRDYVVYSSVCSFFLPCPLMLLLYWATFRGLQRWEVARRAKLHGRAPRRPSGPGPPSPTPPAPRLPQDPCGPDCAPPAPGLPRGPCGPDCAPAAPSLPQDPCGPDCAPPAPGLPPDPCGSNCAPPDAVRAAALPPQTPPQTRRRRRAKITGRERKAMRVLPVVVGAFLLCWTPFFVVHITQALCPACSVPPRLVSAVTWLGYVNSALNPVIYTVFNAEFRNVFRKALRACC
Protocol: as §1

[12] = target: T12, 5-hT5a (serotonin receptor) (Homo sapiens, UniProt P47898); assay: Radioligand binding assay; conditions: 10 µM; HEK membrane fractions; quadruplicate
T12 construct: purchased NIMH Psychoactive Drug Screening Program (PDSP)
T12 sequence (P47898 whole entry): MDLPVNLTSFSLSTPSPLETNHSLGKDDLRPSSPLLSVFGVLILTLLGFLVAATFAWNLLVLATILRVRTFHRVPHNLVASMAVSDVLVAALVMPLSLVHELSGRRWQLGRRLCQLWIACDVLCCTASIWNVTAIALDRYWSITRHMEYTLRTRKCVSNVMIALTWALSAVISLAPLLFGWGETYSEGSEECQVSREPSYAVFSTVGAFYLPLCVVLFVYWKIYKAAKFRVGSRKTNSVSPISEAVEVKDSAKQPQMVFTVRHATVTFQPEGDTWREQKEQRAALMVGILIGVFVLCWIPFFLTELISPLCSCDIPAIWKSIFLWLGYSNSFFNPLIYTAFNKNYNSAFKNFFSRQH
Protocol: as §1

[13] = target: T13, Alpha2A (alpha adrenergic receptor) (Homo sapiens, UniProt P08913); assay: Radioligand binding assay; conditions: 10 µM; HEK membrane fractions; quadruplicate
T13 construct: purchased NIMH Psychoactive Drug Screening Program (PDSP)
T13 sequence (P08913 whole entry): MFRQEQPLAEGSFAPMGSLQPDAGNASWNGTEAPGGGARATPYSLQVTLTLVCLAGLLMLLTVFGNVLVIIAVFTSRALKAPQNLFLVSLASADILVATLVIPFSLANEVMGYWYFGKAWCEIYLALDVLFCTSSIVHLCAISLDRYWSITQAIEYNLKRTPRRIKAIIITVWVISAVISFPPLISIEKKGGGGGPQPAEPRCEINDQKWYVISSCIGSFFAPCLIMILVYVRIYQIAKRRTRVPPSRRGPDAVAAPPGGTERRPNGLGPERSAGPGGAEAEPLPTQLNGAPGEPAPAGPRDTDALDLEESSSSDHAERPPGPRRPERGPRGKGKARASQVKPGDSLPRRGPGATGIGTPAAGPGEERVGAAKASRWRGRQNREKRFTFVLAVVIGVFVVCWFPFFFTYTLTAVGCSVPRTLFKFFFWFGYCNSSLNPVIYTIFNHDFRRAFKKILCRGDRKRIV
Protocol: as §1

[14] = target: T14, M4 (muscarinic receptor) (Homo sapiens, UniProt P08173); assay: Radioligand binding assay; conditions: 10 µM; HEK membrane fractions; quadruplicate
T14 construct: purchased NIMH Psychoactive Drug Screening Program (PDSP)
Protocol: as §1

[15] = target: T15, MOR (µ-opioid receptor) (Homo sapiens, UniProt P35372); assay: Radioligand binding assay; conditions: 10 µM; HEK membrane fractions; quadruplicate
T15 construct: purchased NIMH Psychoactive Drug Screening Program (PDSP)
T15 sequence (P35372 whole entry): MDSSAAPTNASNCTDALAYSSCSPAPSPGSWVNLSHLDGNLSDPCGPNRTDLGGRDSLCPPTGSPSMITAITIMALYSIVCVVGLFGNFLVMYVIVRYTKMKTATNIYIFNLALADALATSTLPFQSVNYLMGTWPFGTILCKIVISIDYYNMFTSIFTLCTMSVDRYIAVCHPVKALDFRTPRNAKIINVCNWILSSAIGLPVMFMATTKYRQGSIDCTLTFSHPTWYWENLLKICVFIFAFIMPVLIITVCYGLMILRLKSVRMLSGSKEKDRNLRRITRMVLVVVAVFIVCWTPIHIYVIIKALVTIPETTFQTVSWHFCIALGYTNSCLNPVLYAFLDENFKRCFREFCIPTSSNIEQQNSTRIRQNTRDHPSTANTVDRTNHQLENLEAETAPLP
Protocol: as §1

[16] = target: T16, D5 (dopamine receptor) (Homo sapiens, UniProt P21918); assay: Radioligand binding assay; conditions: 10 µM; HEK membrane fractions; quadruplicate
T16 construct: purchased NIMH Psychoactive Drug Screening Program (PDSP)
T16 sequence (P21918 whole entry): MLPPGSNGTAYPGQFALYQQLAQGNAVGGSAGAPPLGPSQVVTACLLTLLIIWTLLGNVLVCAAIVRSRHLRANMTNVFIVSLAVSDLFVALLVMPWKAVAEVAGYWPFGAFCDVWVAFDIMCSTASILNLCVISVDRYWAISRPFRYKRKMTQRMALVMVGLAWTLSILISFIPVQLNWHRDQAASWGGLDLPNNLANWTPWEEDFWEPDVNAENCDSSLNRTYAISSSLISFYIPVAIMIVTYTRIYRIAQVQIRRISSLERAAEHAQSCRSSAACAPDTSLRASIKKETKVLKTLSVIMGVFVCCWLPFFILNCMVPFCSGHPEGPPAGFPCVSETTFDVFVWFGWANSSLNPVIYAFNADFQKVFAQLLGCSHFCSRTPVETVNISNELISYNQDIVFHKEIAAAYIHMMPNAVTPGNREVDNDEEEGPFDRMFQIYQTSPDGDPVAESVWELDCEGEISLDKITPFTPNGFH
Protocol: as §1

[17] = target: T17, 5-HT2A (serotonin receptor) (Homo sapiens, UniProt P28223); assay: Radioligand binding assay; conditions: 10 µM; HEK membrane fractions; quadruplicate
T17 construct: purchased NIMH Psychoactive Drug Screening Program (PDSP)
T17 sequence (P28223 whole entry): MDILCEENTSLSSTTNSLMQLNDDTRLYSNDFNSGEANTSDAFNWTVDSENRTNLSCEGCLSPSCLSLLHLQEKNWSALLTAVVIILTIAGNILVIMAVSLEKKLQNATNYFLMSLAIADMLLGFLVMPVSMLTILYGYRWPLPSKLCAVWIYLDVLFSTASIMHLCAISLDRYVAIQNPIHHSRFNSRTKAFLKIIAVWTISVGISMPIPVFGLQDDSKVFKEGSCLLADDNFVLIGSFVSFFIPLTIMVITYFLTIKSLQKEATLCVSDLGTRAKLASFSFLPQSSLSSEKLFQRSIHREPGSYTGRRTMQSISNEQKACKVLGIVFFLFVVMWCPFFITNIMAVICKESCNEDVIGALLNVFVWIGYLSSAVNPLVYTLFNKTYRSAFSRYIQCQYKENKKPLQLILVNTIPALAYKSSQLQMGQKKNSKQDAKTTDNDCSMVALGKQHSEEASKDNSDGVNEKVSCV
Protocol: as §1

[18] = target: T18, DOR (δ-opioid receptor) (Homo sapiens, UniProt P41143); assay: Radioligand binding assay; conditions: 10 µM; HEK membrane fractions; quadruplicate
T18 construct: purchased NIMH Psychoactive Drug Screening Program (PDSP)
T18 sequence (P41143 whole entry): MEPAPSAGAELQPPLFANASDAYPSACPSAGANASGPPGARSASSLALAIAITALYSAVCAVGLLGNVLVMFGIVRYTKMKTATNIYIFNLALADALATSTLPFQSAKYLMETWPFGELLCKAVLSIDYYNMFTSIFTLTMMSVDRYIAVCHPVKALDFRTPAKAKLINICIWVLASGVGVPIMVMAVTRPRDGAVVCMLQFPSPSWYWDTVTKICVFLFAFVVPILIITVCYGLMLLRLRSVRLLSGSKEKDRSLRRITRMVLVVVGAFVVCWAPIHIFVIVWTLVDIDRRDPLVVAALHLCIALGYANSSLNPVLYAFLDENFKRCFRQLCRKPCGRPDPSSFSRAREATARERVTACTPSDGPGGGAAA
Protocol: as §1

[19] = target: T19, 5-HT1B (serotonin receptor) (Homo sapiens, UniProt P28222); assay: Radioligand binding assay; conditions: 10 µM; HEK membrane fractions; quadruplicate
T19 construct: purchased NIMH Psychoactive Drug Screening Program (PDSP)
Protocol: as §1

[20] = target: T20, Alpha1B (alpha adrenergic receptor) (Homo sapiens, UniProt P35368); assay: Radioligand binding assay; conditions: 10 µM; HEK membrane fractions; quadruplicate
T20 construct: purchased NIMH Psychoactive Drug Screening Program (PDSP)
Protocol: as §1

[21] = target: T21, NET (norepinephrine transporter) (Homo sapiens, UniProt P23975); assay: Radioligand binding assay; conditions: 10 µM; HEK membrane fractions; quadruplicate
T21 construct: purchased NIMH Psychoactive Drug Screening Program (PDSP)
Protocol: as §1

[22] = target: T22, Beta3 (beta adrenergic receptor) (Homo sapiens, UniProt P13945); assay: Radioligand binding assay; conditions: 10 µM; HEK membrane fractions; quadruplicate
T22 construct: purchased NIMH Psychoactive Drug Screening Program (PDSP)
Protocol: as §1

[23] = target: T23, 5-HT2C (serotonin receptor) (Homo sapiens, UniProt P28335); assay: Radioligand binding assay; conditions: 10 µM; HEK membrane fractions; quadruplicate
T23 construct: purchased NIMH Psychoactive Drug Screening Program (PDSP)
Protocol: as §1

[24] = target: T24, DAT (dopamine transporter) (Homo sapiens, UniProt Q01959); assay: Radioligand binding assay; conditions: 10 µM; HEK membrane fractions; quadruplicate
T24 construct: purchased NIMH Psychoactive Drug Screening Program (PDSP)
Protocol: as §1

[25] = target: T25, Alpha2B (alpha adrenergic receptor) (Homo sapiens, UniProt P18089); assay: Radioligand binding assay; conditions: 10 µM; HEK membrane fractions; quadruplicate
T25 construct: purchased NIMH Psychoactive Drug Screening Program (PDSP)
Protocol: as §1

[26] = target: T26, 5-HT1A (serotonin receptor) (Homo sapiens, UniProt P08908); assay: Radioligand binding assay; conditions: 10 µM; HEK membrane fractions; quadruplicate
T26 construct: purchased NIMH Psychoactive Drug Screening Program (PDSP)
Protocol: as §1

[27] = target: T27, 5-HT2B (serotonin receptor) (Homo sapiens, UniProt P41595); assay: Radioligand binding assay; conditions: 10 µM; HEK membrane fractions; quadruplicate
T27 construct: purchased NIMH Psychoactive Drug Screening Program (PDSP)
T27 sequence (P41595 whole entry): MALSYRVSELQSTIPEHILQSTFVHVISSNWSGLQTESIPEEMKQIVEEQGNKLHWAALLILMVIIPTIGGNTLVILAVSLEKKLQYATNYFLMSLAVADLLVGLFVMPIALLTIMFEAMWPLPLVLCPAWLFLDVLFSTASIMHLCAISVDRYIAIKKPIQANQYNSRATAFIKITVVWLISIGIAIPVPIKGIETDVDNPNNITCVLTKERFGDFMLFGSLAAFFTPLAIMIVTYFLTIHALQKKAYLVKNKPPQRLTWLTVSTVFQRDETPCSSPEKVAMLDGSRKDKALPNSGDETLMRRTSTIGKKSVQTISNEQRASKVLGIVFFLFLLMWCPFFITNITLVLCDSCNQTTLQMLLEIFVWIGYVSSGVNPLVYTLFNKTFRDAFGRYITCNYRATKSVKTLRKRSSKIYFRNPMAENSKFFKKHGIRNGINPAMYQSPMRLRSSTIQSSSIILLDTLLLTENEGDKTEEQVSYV
Protocol: as §1

[28] = system: PBR (peripheral benzodiazepine receptor); assay: Radioligand binding assay; conditions: 10 µM; HEK membrane fractions; quadruplicate
Protocol: as §1

[29] = target: T28, Alpha1A (alpha adrenergic receptor) (Homo sapiens, UniProt P35348); assay: Radioligand binding assay; conditions: 10 µM; HEK membrane fractions; quadruplicate
T28 construct: purchased NIMH Psychoactive Drug Screening Program (PDSP)
Protocol: as §1

[30] = system: BZP RBS (rat brain benzylpiperazine site); assay: Radioligand binding assay; conditions: 10 µM; quadruplicate
Protocol: as §1

[31] = In vivo safety: plasma ALP, AST, ALT, BUN; parameters: species or system mouse; conditions: 2 weeks, all doses tested
Protocol: We then initiated dose response and safety studies in mice to determine testing dosages and safety of DHCA and Mal-gluc. C57BL/6 mice were treated with either DHCA (doses ranging from 50 µg to 50 mg/kg-BW/day) or Mal-gluc (doses ranging from 50 ng to 5 mg/kg-BW/day) for 2 weeks to simulate long-term administration. Mice treated with DHCA were challenged with intraperitoneal (i.p.) injection of 0.4 mg/kg-BW LPS and plasma levels of IL-6 were measured 6 h post injection. […] Following common discovery-stage practices, we measured the plasma levels of alkaline phosphatase (ALP), aspartate aminotransferase (AST), and alanine aminotransferase (ALT) for liver function and blood urea nitrogen (BUN) for renal function.
Male C57BL/6 J mice (8-week-old) were placed on a polyphenol-free AIN-93M diet and treated with various doses of DHCA (vehicle, 50 µg, 500 µg, 5 mg, and 50 mg/kg-BW/day), delivered through their drinking water for two weeks. Animals were then sacrificed and plasma was collected for routine biochemistry panel analysis including ALP, ALT, and AST for liver function and blood urea nitrogen (BUN) content for kidney function. A separate group of mice was similarly treated and challenged with an i.p. injection of 0.4 mg/kg body weight LPS and plasma was collected 6 h post injection for IL-6 analysis. […]

| Structure (SMILES) | Binding activity, 5-hT1e (percentage) [1] [%] | Binding activity, SERT (percentage) [2] [%] | Binding activity, 5-HT7 (percentage) [3] [%] | Binding activity, M1 (percentage) [4] [%] | Binding activity, Alpha2C (percentage) [5] [%] | Binding activity, D2 (percentage) [6] [%] | Binding activity, M5 (percentage) [7] [%] | Binding activity, Beta1 (percentage) [8] [%] | Binding activity, 5-HT1D (percentage) [9] [%] | Binding activity, D1 (percentage) [10] [%] | Binding activity, D4 (percentage) [11] [%] | Binding activity, 5-hT5a (percentage) [12] [%] | Binding activity, Alpha2A (percentage) [13] [%] | Binding activity, M4 (percentage) [14] [%] | Binding activity, MOR (percentage) [15] [%] | Binding activity, D5 (percentage) [16] [%] | Binding activity, 5-HT2A (percentage) [17] [%] | Binding activity, DOR (percentage) [18] [%] | Binding activity, 5-HT1B (percentage) [19] [%] | Binding activity, Alpha1B (percentage) [20] [%] | other results |
| --- | --- | --- | --- | --- | --- | --- | --- | --- | --- | --- | --- | --- | --- | --- | --- | --- | --- | --- | --- | --- | --- |
| O=C(O)CCc1ccc(O)c(O)c1 [DHCA, 3(3,4-dihydroxy-phenyl) propionic acid] | −1.7 | −0.9 | 4.2 | −1.8 | 27.3 | −5.7 | 21.2 | −14.1 | 11.7 | −3.7 | 1.9 | 4.2 | 15.7 | 3 | −7.1 | 5.1 | 18 | 9.5 | −11.8 | 11.1 | Binding activity, NET (percentage) [21]: −16.4%; Binding activity, Beta3 (percentage) [22]: −15.8%; Binding activity, 5-HT2C (percentage) [23]: −9.9%; Binding activity, DAT (percentage) [24]: 34.5%; Binding activity, Alpha2B (percentage) [25]: −2.3%; Binding activity, 5-HT1A (percentage) [26]: 3.3%; Binding activity, 5-HT2B (percentage) [27]: −7%; Binding activity, PBR (percentage) [28]: −13.3%; Binding activity, Alpha1A (percentage) [29]: 4%; Binding activity, BZP RBS (percentage) [30]: −5.2%; plasma ALP, AST, ALT (liver function) and BUN (renal function) [31]: neither phytochemical induced significant changes in any of the indexes |
| COc1cc(-c2[o+]c3cc(O)cc(O)c3cc2O[C@@H]2O[C@H](CO)[C@@H](O)[C@H](O)[C@H]2O)cc(OC)c1O [Mal-gluc] | 10.3 | 7.8 | −13.5 | −6.2 | −11 | 7.2 | −10.2 | −15.5 | 54 | −10.3 | −2 | 5.2 | 7.3 | −4.6 | −5 | −2 | −10.5 | −10.2 | 10.4 | 24.4 | Ki ([9]; secondary radioligand binding assay, read-out: calculated inhibitory constant (Ki), 5-HT1D): > 10 µM; Binding activity, NET (percentage) [21]: −9.4%; Binding activity, Beta3 (percentage) [22]: −17.7%; Binding activity, 5-HT2C (percentage) [23]: −6.9%; Binding activity, DAT (percentage) [24]: −18.2%; Binding activity, Alpha2B (percentage) [25]: −5.9%; Binding activity, 5-HT1A (percentage) [26]: 8.6%; Binding activity, 5-HT2B (percentage) [27]: −13.8%; Binding activity, PBR (percentage) [28]: 15.7%; Binding activity, Alpha1A (percentage) [29]: −4.5%; Binding activity, BZP RBS (percentage) [30]: 5.4%; plasma ALP, AST, ALT (liver function) and BUN (renal function) [31]: neither phytochemical induced significant changes in any of the indexes |
